Source: PMC7153899, “Anti-hyperglycemic activity of myricetin, through inhibition of DPP-4 and enhanced GLP-1 levels, is attenuated by co-ingestion with lectin-rich protein” (PLoS ONE, 2020)

Target: T1, Dipeptidyl peptidase-4 (DPP-4) (Homo sapiens, UniProt P27487)
T1 construct: gene DPP4; recombinant DPP-4 (human)
Experiment: colorimetric enzyme assay with recombinant human DPP-4, gly-pro p-nitroanilide substrate, absorbance […] nm
Format: biochemical

T1 sequence (P27487 39-766): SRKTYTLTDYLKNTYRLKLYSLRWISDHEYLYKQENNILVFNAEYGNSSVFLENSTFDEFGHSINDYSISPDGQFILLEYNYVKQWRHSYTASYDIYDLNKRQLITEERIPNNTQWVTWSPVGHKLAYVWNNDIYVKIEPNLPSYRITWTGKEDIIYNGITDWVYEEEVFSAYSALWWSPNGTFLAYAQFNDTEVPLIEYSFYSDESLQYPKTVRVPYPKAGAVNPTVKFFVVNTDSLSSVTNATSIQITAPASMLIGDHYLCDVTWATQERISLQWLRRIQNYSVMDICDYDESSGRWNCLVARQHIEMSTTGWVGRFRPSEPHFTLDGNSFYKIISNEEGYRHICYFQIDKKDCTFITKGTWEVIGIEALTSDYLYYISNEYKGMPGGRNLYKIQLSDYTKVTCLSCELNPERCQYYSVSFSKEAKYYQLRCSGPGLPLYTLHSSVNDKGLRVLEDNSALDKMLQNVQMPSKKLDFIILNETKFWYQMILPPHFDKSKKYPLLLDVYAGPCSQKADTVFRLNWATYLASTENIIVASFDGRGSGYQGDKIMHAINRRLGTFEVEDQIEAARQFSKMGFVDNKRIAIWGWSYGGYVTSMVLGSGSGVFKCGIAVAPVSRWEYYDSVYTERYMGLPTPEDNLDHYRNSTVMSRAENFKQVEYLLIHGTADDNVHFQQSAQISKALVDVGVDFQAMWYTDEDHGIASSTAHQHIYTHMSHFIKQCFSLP

## O=c1c(O)c(-c2cc(O)c(O)c(O)c2)oc2cc(O)cc(O)c12 [myricetin]
  IC50: 4.8 ± 0.36 µM
